From US5677419A, “Cyclic vasoactive peptide analogs” (Hoffmann-La Roche Inc., priority 1994, dated 1997) come the findings set out here.

Where a SMILES comes first, the peptide text is derived from it. Bridges are numbered along the chain shown (N, C = ends). [ ]: non-standard residue; d: D form. Nle = CCCC[C@H](N)C(=O)O

The subject of assay [1] is guinea pig tracheal smooth muscle. In words: Tracheal relaxant activity of VIP analogs on isolated guinea pig tracheal rings. It counts as cell-based. The following applies: cumulative concentration response, relaxation as % of maximum response to VIP (10^-6 M=100%), three tissues pooled, linear regression. As for the experimental part: The relaxant activity of the VIP analogs were studied in a model utilizing guinea pig trachea. [Wasserman, M. A. et al., in Vasoactive Intestinal Peptide, S. I. Said, ed., Raven Press, New York 1982, pp 177-184] All tissues were taken from male albino guinea pig weighing 400-600 g, anesthetized with urethane (2 g/kg, i.p.). After exanguination, the trachea were removed and divided into four ring segments (3 mm length). Each ring was suspended by 30 gauge stainless steel wires in a 10 mL jacketed tissue bath and attached via 4-0 silk thread to a GRASS force displacement transducer (model FT03C, Grass Instruments Co., Quincy, Mass.), for isometric recording of tension. The smooth muscle was bathed in modified Krebs solution of the following composition: NaCl, 120 mM; KCl, 4.7 mM; CaCl2, 2.5 mM; MgSO4.7H2 O, 1.2 mM; NaHCO3, 25 mM; K2 HPO4 monobasic, 1.2 mM; and dextrose, 10 mM. Tissue baths were maintained at 37° C. and constantly bubbled with 95% O2 and 5% CO2. Responses were recorded on an 8 channel and a 4 channel HEWLETT-PACKARD (model 7702B and 7754A, respectively) recorder (Hewlett- Packard, Paramus, N.J.). Tracheal rings were placed under a resting tension of 1.5 g which was determined to be at or near optimal in preliminary experiments. Frequent readjustments of tension were required during the 60 minute stabilization period which followed. Tissues were rinsed at 15 minute intervals.
Cumulative concentration response curves were obtained for each tissue by successive […] increases in the bath concentration of VIP or VIP analogs according to the method of VanRossum [Arch. Int. Pharmacodyn., 143, 299-330 (1963)]. Only one cumulative dose response curve was obtained on a single tissue. To minimize variability between tissues, relaxant responses were expressed as a percentage of the maximum response obtained to VIP (10^-6 M=100%) added at the end of each concentration response experiment. Responses obtained from three tissues were pooled and EC50 values were determined by linear regression.
The results summarized in Table I show the tracheal relaxant activity of the VIP analogs in comparison to native VIP.

The subject of a further assay is guinea pigs. In words: In vivo bronchodilator activity by tracheal instillation against histamine challenge. Also noted: species or system guinea pig. The following applies: anesthetized male guinea pigs, inhibition of histamine (i.v.)-induced rise in tracheal pressure. The procedure: The in vivo bronchodilator activity of VIP and VIP analogs in guinea pigs was assessed by the tracheal instillation route of administration. This technique utilized male guinea pigs (Hartley strain, Charles River) weighing 400-600 g. Animals were anesthetized with urethane (2 g/kg) intraperitoneally and a polyethylene cannula was inserted into the jugular vein for intraveneous drug administration.
The animals were tracheotomized and dosing solutions of distilled water or test compound dissolved in distilled water were administered into the trachea, approximately three-quarters the distance to the carina with a pipette. The concentration of the dosing solution was adjusted to deliver a constant volume of […]. The animals were placed supine for one minute to aid drug delivery to the lung. One minute later, spontaneous breathing was arrested with succinylcholine chloride (1.2 mg/kg) administered intraveneously, and the animals were ventilated with a HARVARD Model 680 small animal respirator set at 40 breaths/min and 4.0 cm^3 stroke volume. The animals were challenged with a maximal constrictory dose of histamine ([…], i.v.) and tracheal pressure (cm of water) was recorded from a STATHAM pressure transducer (P 32 AA).
The change in tracheal pressure was averaged for at least 3 control and 3 drug-treated animals and percent inhibition was calculated. The relative potency of compounds administered by the instillation route was determined by administering various doses of test compound and calculating the median effective dose (ED50 value). The ED50 was determined from log dose-response curves generated by at least 3 doses that caused inhibitory effects between 10% and 90%. The correlation coefficients for the regression line of each compound was always greater than 0.95.
For determination of the time course of inhibition for various compounds, the time between administration of compound and challenge with histamine was varied. The time course of activity was calculated as the time when inhibition decreased to 40%.
The results summarized in Table II show the in vivo bronchodilator activity of the VIP analogs in comparison to native VIP.

In assay [1], `CCCC[C@H](NC(=O)[C@@H]1CCC(=O)NCCCC[C@H](NC(=O)[C@@H](NC(=O)[C@H](Cc2ccc(O)cc2)NC(=O)[C@H](CC(N)=O)NC(=O)[C@H](CC(=O)O)NC(=O)[C@@H](NC(=O)[C@H](Cc2ccccc2)NC(=O)[C@@H](NC(=O)[C@H](C)NC(=O)[C@H](CC(=O)O)NC(=O)[C@H](CO)NC(=O)[C@H](Cc2c[nH]cn2)NC(C)=O)C(C)C)[C@@H](C)O)[C@@H](C)O)C(=O)N[C@@H](CC(C)C)C(=O)N[C@@H](CCCNC(=N)N)C(=O)N[C@@H](CCCCN)C(=O)N1)C(=O)N[C@@H](C)C(=O)N[C@H](C(=O)N[C@@H](CCCCN)C(=O)N[C@@H](CCCCN)C(=O)N[C@@H](Cc1ccc(O)cc1)C(=O)N[C@@H](CC(C)C)C(=O)N[C@@H](CC(N)=O)C(=O)N[C@@H](CO)C(=O)N[C@H](C(=O)N[C@@H](CC(C)C)C(=O)N[C@H](C(N)=O)[C@@H](C)O)C(C)C)C(C)C` [SEQ ID NO:26, Ac-[Lys^12,Glu^16,Nle^17,Val^26,Thr^28]-VIP cyclo (Lys^12 →Glu^16)] (Ac-HSDAVFTDNYTKLRKE[Nle]AVKKYLNSVLT-NH2; lactam 12-16) had an EC50 of 37 nM. For the same compound, the “Bronchodilator activity of VIP analogs in guinea pigs, ED50” value with guinea pigs is listed as 39 μg.
Taken in the same sequence, the figures for `CCCC[C@H](NC(=O)[C@H](CCC(N)=O)NC(=O)[C@H](CCCCN)NC(=O)[C@H](CCCNC(=N)N)NC(=O)[C@H](CC(C)C)NC(=O)[C@H](CCCCN)NC(=O)[C@@H](NC(=O)[C@H](Cc1ccc(O)cc1)NC(=O)[C@H](CC(N)=O)NC(=O)[C@H](CC(=O)O)NC(=O)[C@@H](NC(=O)[C@H](Cc1ccccc1)NC(=O)[C@@H](NC(=O)[C@H](C)NC(=O)[C@H](CC(=O)O)NC(=O)[C@H](CO)NC(=O)[C@H](Cc1c[nH]cn1)NC(C)=O)C(C)C)[C@@H](C)O)[C@@H](C)O)C(=O)N[C@@H](C)C(=O)N[C@H](C(=O)N[C@H]1CCCCNC(=O)C[C@@H](C(=O)N[C@@H](CO)C(=O)N[C@H](C(=O)N[C@@H](CC(C)C)C(=O)N[C@H](C(N)=O)[C@@H](C)O)C(C)C)NC(=O)[C@H](CC(C)C)NC(=O)[C@H](Cc2ccc(O)cc2)NC(=O)[C@H](CCCCN)NC1=O)C(C)C` [SEQ ID NO:27, Ac-[Lys^12,Nle^17,Asp^24,Val^26,Thr^28]-VIP cyclo (Lys^20 →Asp^24)] (Ac-HSDAVFTDNYTKLRKQ[Nle]AVKKYLDSVLT-NH2; lactam 20-24) were 5.3 nM and 2.3 μg.
For `CCCC[C@H](NC(=O)[C@H](CCC(N)=O)NC(=O)[C@H](CCCCN)NC(=O)[C@H](CCCNC(=N)N)NC(=O)[C@H](CC(C)C)NC(=O)[C@H](CCCCN)NC(=O)[C@@H](NC(=O)[C@H](Cc1ccc(O)cc1)NC(=O)[C@H](CC(N)=O)NC(=O)[C@H](CC(=O)O)NC(=O)[C@@H](NC(=O)[C@H](Cc1ccccc1)NC(=O)[C@@H](NC(=O)[C@H](C)NC(=O)[C@H](CC(=O)O)NC(=O)[C@H](CO)NC(=O)[C@H](Cc1c[nH]cn1)NC(C)=O)C(C)C)[C@@H](C)O)[C@@H](C)O)C(=O)N[C@@H](C)C(=O)N[C@H](C(=O)N[C@@H](CCCCN)C(=O)N[C@H]1CCCCNC(=O)C[C@@H](C(=O)N[C@H](C(=O)N[C@@H](CC(C)C)C(=O)N[C@H](C(N)=O)[C@@H](C)O)C(C)C)NC(=O)[C@H](CC(N)=O)NC(=O)[C@H](CC(C)C)NC(=O)[C@H](Cc2ccc(O)cc2)NC1=O)C(C)C` [SEQ ID NO:28, Ac-[Lys^12,Nle^17,Asp^25,Val^26,Thr^28]-VIP cyclo (Lys^21 →Asp^25)] (Ac-HSDAVFTDNYTKLRKQ[Nle]AVKKYLNDVLT-NH2; lactam 21-25) the same measures were 3.1 nM and 1.2 μg.
